Measured values taken from patent EP4790063A1, “PEPTIDE HAVING ACTIVITY FOR […] OF MARINE FOULING” (National University Corporation Hokkaido University, priority 2023, dated 2025).
Like-named read-outs stand apart in the source and are kept apart here.

Legend:
[1] = system: cypris larvae of Striped Barnacle; details: Reference value, see Table 1 in non-Patent literature 8; cited from earlier work
[2] = system: juvenile shellfish of Mediterranean mussel; experiment: Evaluation of the antifouling activity and toxicity against the juvenile shellfish of Mediterranean mussel (coated glass beaker, 3 days); type: in vivo, Mytilus galloprovincialis; details: for bottom surface-adhered individuals % / bottom surface-crawling individuals % / overturned individuals or closed shell individuals (unadhered) % / wall surface-adhered individuals % / number of byssal threads on the bottom surface / bottom surface-adhered individuals No. / bottom surface-crawling individuals No. / overturned individuals or closed shell individuals (unadhered) No. / wall surface-adhered individuals No.: three days; for bottom surface-adhered individuals No. / bottom surface-crawling individuals No. / overturned individuals or closed shell individuals (unadhered) No. / wall surface-adhered individuals No.: twelve individuals
Method: The sample was dissolved in ethanol to adjust to a concentration of 1 mg/mL. Thirty and 100 µL (30 and 100 µg) of the sample solutions were mixed with the solvent, and the mixtures were brought to a total volume of 500 µL. These mixtures were spread on the bottom surface of the glass beaker of the test container, and the solvent was volatilized by shaking them overnight. As a result, the samples to be evaluated were coated only on the bottom surface of the glass beaker.
A volume of 10 mL of the test seawater was added to the glass beakers of the test containers. The tests were initiated by introducing twelve test individuals into the test seawater in each beaker. The tests ended after three days, and the observation was conducted.
In Table 2, the terms "bottom surface-adhered individuals" and "wall surface-adhered individuals" refer to individuals that are adhered to the bottom surface and wall surface of the beaker, respectively; the term "bottom surface-crawling individuals" refers to individuals that move along the bottom surface without adhering; the term "overturned individuals or closed shell individuals (unadhered)" refers to individuals that are either overturned or in a closed shell without adhering to the bottom surface; and the term "number of byssal threads on the bottom surface" refers to the number of foot threads that are fixed to the bottom surface. In particular, the greater the reduction in the number of byssal threads, the stronger the effect of adhesion prevention.

[3] = system: cypris larvae of the striped barnacle; details: Non-Patent Documents 5 and 7, cited from earlier work
[4] = system: NCI-H460 (human lung cancer cell line); details: Non-Patent Document 4; cited from earlier work
[5] = system: KM20L2 (human colon cancer cell line); details: Non-Patent Document 4; cited from earlier work
[6] = system: SF-295 (human glioblastoma cell line); details: Non-Patent Document 4; cited from earlier work

CC(C)[C@@H](NC(=O)[C@@H]1CCCN1C(=O)[C@@H](NC(=O)OC(C)(C)C)[C@H](C)Cc1ccccc1)[C@@H](C)C(=O)OCc1ccccc1 [Boc-3]
Toxicity 48h LC50 [1]: >10 µg/mL

Dolastatin 16 [reference compound]
bottom surface-adhered individuals % ([2]; 3 µg/mL (30 µg)): 75.0% | bottom surface-crawling individuals % ([2]; 3 µg/mL (30 µg)): 0.0% | overturned individuals or closed shell individuals (unadhered) % ([2]; 3 µg/mL (30 µg)): 0.0% | wall surface-adhered individuals % ([2]; 3 µg/mL (30 µg)): 25.0% | number of byssal threads on the bottom surface ([2]; 3 µg/mL (30 µg), control group 118): 72 | bottom surface-adhered individuals No. ([2]; 3 µg/mL (30 µg)): 9 | bottom surface-crawling individuals No. ([2]; 3 µg/mL (30 µg)): 0 | overturned individuals or closed shell individuals (unadhered) No. ([2]; 3 µg/mL (30 µg)): 0 | wall surface-adhered individuals No. ([2]; 3 µg/mL (30 µg)): 3 | bottom surface-adhered individuals % ([2]; 10 µg/mL (100 µg)): 100.0% | bottom surface-crawling individuals % ([2]; 10 µg/mL (100 µg)): 0.0% | number of byssal threads on the bottom surface ([2]; 10 µg/mL (100 µg)): 45 | overturned individuals or closed shell individuals (unadhered) % ([2]; 10 µg/mL (100 µg)): 0.0% | wall surface-adhered individuals % ([2]; 10 µg/mL (100 µg)): 0.0% | bottom surface-adhered individuals No. ([2]; 10 µg/mL (100 µg)): 12 | bottom surface-crawling individuals No. ([2]; 10 µg/mL (100 µg)): 0 | overturned individuals or closed shell individuals (unadhered) No. ([2]; 10 µg/mL (100 µg)): 0 | wall surface-adhered individuals No. ([2]; 10 µg/mL (100 µg)): 0 | antifouling effect (overall determination in words) ([2]; juvenile Mediterranean mussel, 3.0 µg/mL and 10 µg/mL): no antifouling effect | antifouling action (in words) [3]: antifouling actions | antifouling action (in words) ([3]; listed as synthetic Dolastatin 16): equivalent to that of the natural Dolastatin 16 | growth-inhibiting effect (in words) [4]: growth-inhibiting effect | growth-inhibiting effect (in words) [5]: growth-inhibiting effect | growth-inhibiting effect (in words) [6]: growth-inhibiting effect
